Experimental data reported in publication PMC10303384, “The Effect of Terbinafine and Its Ionic Salts on Certain Fungal Plant Pathogens” (Molecules, 2023).
Read-outs that look alike come from different tables or passages of the source.

Assays:
[1] = tested on: Valsa malicola (V. mali); assay: In vitro fungicidal activity, mycelial (hyphae) growth inhibition on PDA; type: cell-based
[2] = tested on: Botrytis cinerea (B. cinerea); assay: as above; type: cell-based
[3] = tested on: Pyricularia oryzae (P. oryzae); assay: microbe, parasite or virus in culture; type: cell-based; details: for Inhibition Rate at 50 mg/L (%) P. o: mean ± SD of three replicates; for EC50: P. oryzae
[4] = tested on: Phomopsis capsici (P. capsica); assay: In vitro fungicidal activity, mycelial (hyphae) growth inhibition on PDA; type: cell-based
[5] = tested on: Alternaria solani (A. solani); assay: as above; type: cell-based
[6] = tested on: Rhizoctonia solani (R. solani); assay: microbe, parasite or virus in culture; type: cell-based
[7] = tested on: Fusarium graminearum (F. graminearum); assay: microbe, parasite or virus in culture; type: cell-based; details: for Inhibition Rate at 50 mg/L (%) F. g: mean ± SD of three replicates
[8] = tested on: Pythium aphanidermatum (P. aphanidermatum); assay: In vitro fungicidal activity, mycelial (hyphae) growth inhibition on PDA; type: cell-based
[9] = Solubility classification in representative solvents (Vogel protocol); type: physicochemical; details: thermodynamic from solid, 25 °C, test amount 0.1 g
Protocol: This investigation details how to determine the solubility of terbinafine and its salts, guided by the experimental protocol in Vogel’s Textbook of Practical Organic Chemistry. Based on the Snyder polarity index values of the representative solvents, each solvent was tested for its ability to dissolve the target analytes. The solubility data was classified into three categories based on the observed extent of dissolution. […] The experimental procedures were performed at 25 °C and under ambient pressure.

[10] = Solubility of saturated solutions by HPLC at 25 °C; type: physicochemical
Text: The filtrate was then passed through a 0.22 μm nylon membrane filter and subjected to HPLC analysis. Based on Wang’s report about the chromatographic parameters, modifications to the mobile phase ratio were made. The replicability of the results was ensured by performing each measurement in triplicate.

[11] = tested on: B. cinerea on cherry tomatoes; assay: In vivo antifungal bioassay on cherry tomatoes; parameters: species or system Botrytis cinerea; details: 20 mg/L; for Diameter of infection (cm) 4 days: 4 days after treatment; for Diameter of infection (cm) 7 days: 7 days after treatment
[12] = Surface tension of saturated aqueous solutions, Du Noüy ring method; details: 25 °C
Protocol: This method involved adjusting the stage positioning of the solvent container such that a platinum ring could be immersed below the liquid interface or pulled through the meniscus. […] The maximum force was recorded as the surface tension of the solvent. To ensure accuracy, the platinum ring was thoroughly cleaned between each measurement through rinsing with double-distilled water and wiping it dry. The surface tension determination was performed in quadruplicate.

[13] = Critical micelle concentration by electrical conductivity; details: 25 °C
Protocol: The critical micelle concentrations (CMCs) of the TISs were measured using electrical conductivity at 25 °C, as shown in Figure S16.
The critical micelle concentrations (CMCs) of all the TISs were determined using an electrical conductivity meter (Leica Desktop Conductivity Meter DDSJ-308F, Shanghai Oustor Industrial Co., Ltd. Shanghai, China).

[14] = Fusarium graminearum, F. graminearum
[15] = read-out: EC50 (μmol/L), F. graminearum
[16] = DMSO, organic solvent or mixture, Snyder polarity index 6.5, read-out: Solubility in DMSO
[17] = acetone, organic solvent or mixture, Snyder polarity index 5.1, read-out: Solubility in Acetone
[18] = acetonitrile, organic solvent or mixture, Snyder polarity index 6.2, read-out: Solubility in Acetonitrile
[19] = chloroform, organic solvent or mixture, Snyder polarity index 4.1, read-out: Solubility in Chloroform
[20] = ethyl acetate, organic solvent or mixture, Snyder polarity index 4.3, read-out: Solubility in Ethyl acetate
[21] = isopropanol, organic solvent or mixture, read-out: Solubility in Isopropanol
[22] = methanol, organic solvent or mixture, Snyder polarity index 6.6, read-out: Solubility in Methanol
[23] = n-hexane, organic solvent or mixture, Snyder polarity index 0.0, read-out: Solubility in n-Hexane
[24] = toluene, organic solvent or mixture, Snyder polarity index 2.3, read-out: Solubility in Toluene
[25] = water, Snyder polarity index 9.0, read-out: Solubility in Water
[26] = acetone, organic solvent or mixture, thermodynamic from solid, Table S1, read-out: Solubility, Acetone
[27] = acetonitrile, organic solvent or mixture, thermodynamic from solid, Table S1, read-out: Solubility, Acetonitrile
[28] = ethyl acetate, organic solvent or mixture, thermodynamic from solid, Table S1, read-out: Solubility, Ethyl acetate
[29] = isopropanol, organic solvent or mixture, thermodynamic from solid, Table S1, read-out: Solubility, Isopropanol
[30] = n-hexane, organic solvent or mixture, thermodynamic from solid, Table S1, read-out: Solubility, n-Hexane
[31] = toluene, organic solvent or mixture, thermodynamic from solid, Table S1, read-out: Solubility, Toluene
[32] = water, thermodynamic from solid, Table S1, read-out: Solubility, Water

CN(C/C=C/C#CC(C)(C)C)Cc1cccc2ccccc12.O=C(O)/C=C\C(=O)O [TIS 3, (E)-N,6,6-trimethyl-N-(naphthalen-1-ylmethyl)hept-2-en-4-yn-1-aminium (Z)-3-carboxyacrylate]
EC50 [1]: 2.03 µg/mL | Inhibition Rate at 50 mg/L (%) V. m [1]: 100 ± 0% | EC50 ([1]; read-out: EC50 (μmol/L)): 4.98 µmol/L | Inhibition Rate at 50 mg/L (%) B. c [2]: 100 ± 0% | EC50 ([2]; Botrytis cinerea): 0.13 µg/mL | Inhibition Rate at 50 mg/L (%) P. o [3]: 99.29 ± 0% | EC50 ([3]; Pyricularia oryzae): 0.58 µg/mL | EC50 ([3]; read-out: EC50 (μmol/L)): 1.41 µmol/L | Inhibition Rate at 50 mg/L (%) P. c [4]: 33.16 ± 2.52% | Inhibition Rate at 50 mg/L (%) A. s [5]: 100 ± 0% | EC50 ([5]; Alternaria solani): 0.15 µg/mL | EC50 ([5]; read-out: EC50 (μmol/L)): 0.36 µmol/L | better activity than terbinafine [6]: 24% | Inhibition Rate at 50 mg/L (%) R. s [6]: 83.4 ± 0.35% | EC50 ([6]; Rhizoctonia solani): 1.84 µg/mL | EC50 ([6]; read-out: EC50 (μmol/L)): 4.51 µmol/L | Inhibition Rate at 50 mg/L (%) F. g [7]: 100 ± 0% | EC50 [7, 14]: 0.1 µg/mL | EC50 [7, 15]: 0.24 µmol/L | Inhibition Rate at 50 mg/L (%) P. a [8]: 69.54 ± 0% | solubility [9, 16]: > 100 mg/mL | solubility [9, 17]: < 33.3 mg/mL | solubility [9, 18]: < 33.3 mg/mL | solubility [9, 19]: > 100 mg/mL | solubility [9, 20]: < 33.3 mg/mL | solubility [9, 21]: < 33.3 mg/mL | solubility [9, 22]: > 100 mg/mL | solubility [9, 23]: < 33.3 mg/mL | solubility [9, 24]: < 33.3 mg/mL | solubility [9, 25]: < 33.3 mg/mL | solubility at 15 min [10, 26]: 3.76 µM | solubility at 15 min [10, 27]: 1490 µM | solubility at 15 min [10, 28]: 485 µM | solubility at 15 min [10, 29]: 3.06 µM | solubility at 15 min [10, 30]: 0.234 µM | solubility at 15 min [10, 31]: 42.1 µM | solubility at 15 min [10, 32]: 616 µM | Diameter of infection (cm) 4 days [11]: 0.82 cm | Diameter of infection (cm) 7 days [11]: 1.02 cm | surface tension of the saturated aqueous solution [12]: 61.48 mN·m^−1

CN(C/C=C/C#CC(C)(C)C)Cc1cccc2ccccc12.O=C(O)c1ccccc1O [TIS 1, (E)-N,6,6-trimethyl-N-(naphthalen-1-ylmethyl)hept-2-en-4-yn-1-aminium 2-hydroxybenzoate]
EC50 [1]: 2.24 µg/mL | Inhibition Rate at 50 mg/L (%) V. m [1]: 100 ± 0% | EC50 ([1]; read-out: EC50 (μmol/L)): 5.21 µmol/L | Inhibition Rate at 50 mg/L (%) B. c [2]: 100 ± 0% | EC50 ([2]; Botrytis cinerea): 0.14 µg/mL | EC50 ([2]; read-out: EC50 (μmol/L)): 0.32 µmol/L | Inhibition Rate at 50 mg/L (%) P. o [3]: 99.05 ± 0.21% | EC50 ([3]; Pyricularia oryzae): 0.47 µg/mL | EC50 ([3]; read-out: EC50 (μmol/L)): 1.1 µmol/L | inhibition at 50 µg/mL ([4]; Diaporthe capsici, 50 mg/L, read-out: Inhibition Rate at 50 mg/L (%) P. c): 47 ± 1.18% | Inhibition Rate at 50 mg/L (%) A. s [5]: 100 ± 0% | EC50 ([5]; Alternaria solani): 0.13 µg/mL | EC50 ([5]; read-out: EC50 (μmol/L)): 0.3 µmol/L | Inhibition Rate at 50 mg/L (%) R. s [6]: 84.79 ± 1.25% | EC50 ([6]; Rhizoctonia solani): 2.49 µg/mL | EC50 ([6]; read-out: EC50 (μmol/L)): 5.81 µmol/L | Inhibition Rate at 50 mg/L (%) F. g [7]: 100 ± 0% | EC50 [7, 14]: 0.1 µg/mL | EC50 [7, 15]: 0.23 µmol/L | inhibition at 50 µg/mL ([8]; Pythium aphanidermatum, 50 mg/L, read-out: Inhibition Rate at 50 mg/L (%) P. a): 74.61 ± 0.38% | solubility [9, 16]: > 100 mg/mL | solubility [9, 17]: > 100 mg/mL | solubility [9, 18]: > 100 mg/mL | solubility [9, 19]: > 100 mg/mL | solubility [9, 20]: > 100 mg/mL | solubility [9, 21]: < 33.3 mg/mL | solubility [9, 22]: > 100 mg/mL | solubility [9, 23]: < 33.3 mg/mL | solubility [9, 24]: > 100 mg/mL | solubility [9, 25]: < 33.3 mg/mL | solubility at 15 min [10, 29]: 5.18 µM | solubility at 15 min [10, 30]: 0.502 µM | solubility at 15 min [10, 32]: 284 µM | Diameter of infection (cm) 4 days [11]: 0.78 cm | Diameter of infection (cm) 7 days [11]: 1.10 cm | surface tension of the saturated aqueous solution [12]: 58.33 mN·m^−1

CN(C/C=C/C#CC(C)(C)C)Cc1cccc2ccccc12.O=C(O)/C=C/C(=O)O [TIS 4, (E)-N,6,6-trimethyl-N-(naphthalen-1-ylmethyl)hept-2-en-4-yn-1-aminium (E)-3-carboxyacrylate]
EC50 [1]: 1.88 µg/mL | Inhibition Rate at 50 mg/L (%) V. m [1]: 100 ± 0% | EC50 ([1]; read-out: EC50 (μmol/L)): 4.6 µmol/L | Inhibition Rate at 50 mg/L (%) B. c [2]: 100 ± 0% | EC50 ([2]; Botrytis cinerea): 0.15 µg/mL | EC50 ([2]; read-out: EC50 (μmol/L)): 0.36 µmol/L | Inhibition Rate at 50 mg/L (%) P. o [3]: 98.7 ± 0.54% | EC50 ([3]; Pyricularia oryzae): 0.75 µg/mL | EC50 ([3]; read-out: EC50 (μmol/L)): 1.84 µmol/L | Inhibition Rate at 50 mg/L (%) P. c [4]: 47.64 ± 1.58% | Inhibition Rate at 50 mg/L (%) A. s [5]: 100 ± 0% | EC50 ([5]; Alternaria solani): 0.11 µg/mL | EC50 ([5]; read-out: EC50 (μmol/L)): 0.28 µmol/L | Inhibition Rate at 50 mg/L (%) R. s [6]: 85.82 ± 1.51% | EC50 ([6]; Rhizoctonia solani): 2.3 µg/mL | EC50 ([6]; read-out: EC50 (μmol/L)): 5.65 µmol/L | Inhibition Rate at 50 mg/L (%) F. g [7]: 100 ± 0% | higher bioactivity compared to terbinafine ([7]; F. graminearum, from EC50): 16% | EC50 [7, 14]: 0.09 µg/mL | EC50 [7, 15]: 0.21 µmol/L | Inhibition Rate at 50 mg/L (%) P. a [8]: 65.23 ± 0.47% | solubility [9, 16]: > 100 mg/mL | solubility [9, 17]: < 33.3 mg/mL | solubility [9, 18]: < 33.3 mg/mL | solubility [9, 19]: < 33.3 mg/mL | solubility [9, 20]: < 33.3 mg/mL | solubility [9, 21]: < 33.3 mg/mL | solubility [9, 22]: < 33.3 mg/mL | solubility [9, 23]: < 33.3 mg/mL | solubility [9, 24]: < 33.3 mg/mL | solubility [9, 25]: < 33.3 mg/mL | solubility at 15 min [10, 26]: 2070 µM | solubility at 15 min [10, 27]: 301 µM | solubility at 15 min ([10]; chloroform, organic solvent or mixture, thermodynamic from solid, Table S1, read-out: Solubility, Chloroform): 321 µM | solubility at 15 min [10, 28]: 880 µM | solubility at 15 min [10, 29]: 1920 µM | solubility at 15 min ([10]; methanol, organic solvent or mixture, thermodynamic from solid, Table S1, read-out: Solubility, Methanol): 7750 µM | solubility at 15 min [10, 30]: 70.9 µM | solubility at 15 min [10, 31]: 0.261 µM | solubility at 15 min ([10]; water, read-out: water solubility): 1920 µM | solubility at 15 min [10, 32]: 1920 µM | critical micelle concentration (CMC) [13]: 0.31 mmol/L | surface tension of the saturated aqueous solution [12]: 55.68 mN·m^−1
